Measured values: patent publication US20250186461A1, “METHODS AND COMPOSITIONS FOR TREATING AND/OR PREVENTING HERNIAS” (Northwestern University, priority 2023, published 2025)
“Also recorded” adds a separate entry of the source.

Assays:
Arom^hum mice [1] = assay: Hernia prevention in Arom^hum mice (treatment before hernia formation); format: in vivo, mouse; conditions: male Arom^hum mice; 12-week treatment started at 3-3.5 weeks of age (before hernia formation); vs placebo
Excerpt: Our study design is robust, utilizing Arom^hum mice with endpoints examined after treatment with placebo or anti-P4/PGR, and compared to those of WT littermates using 2 different tissue sites: UAM and LAM (normal or weakened/herniated). Inguinal hernia affects predominantly men vs. women (10:1 ratio). Inguinal hernias are unique to male mice and aged men. […] Here, we will focus on the effects of P4/PGR action on skeletal muscle integrity and hernia formation in males, and our work will be carried out in male mice or tissues primarily from men over 50 years of age. We will use mouse or human tissues or primary cells to closely recapitulate in vivo pathology.
(§1) The mouse scrotum is connected to the peritoneal cavity with a narrow funicular (or inguinal) canal, with walls composed of LAM tissue. Structurally normal LAM tissue is essential to maintain the tone of this canal and prevent herniation of the bowel.
Experiment 1a1: Does the addition of P4 to E2 treatment accelerate LAM fibrosis and hernia formation in WT mice? […] We hypothesize that this effect is primarily mediated by the E2 induction of PGR expression in LAM fibroblasts. […] If this were true, the addition of pharmacologic quantities of P4 (75 mg/pellet for 12-week release)^73 to E2 (0.3 mg/pellet for 12-week release)^23-25 in WT mice should accelerate this phenotype. […] See Statistical Methods above for sample size calculation. Hernia surface area will be measured using a digital caliper and calculated as previously described (length×width)^19. At the designated endpoints, LAM and UAM (control) from each mouse will be resected, with one-half of the tissue snap-frozen in liquid nitrogen, and the other half fixed in 4% phosphate-buffered paraformaldehyde for histological and IHC analyses (see below). All tissue and serum (for P4/E2 levels) samples will be collected between 10:00 AM and noon to avoid possible variability in daily hormone fluctuations. […] We will continue to complete the rest of the proposed study in this subaim. We will also assess whether and extent of muscle fibrosis and atrophy will be induced in P4+E2-induced large hernias and E2-induced small hernias. […] P4 antagonists show various levels of selectivity for PGR. […] The use of 3 distinct P4/PGR antagonists with different properties will establish the role of PGR in muscle fibrosis and hernia.
Hernias will be classified as small, medium, or large if the bulging area through muscle tissue is 125-175 mm^2, 175-225 mm^2, or >225 mm^2, respectively. […] We will assess whether muscle fibrosis, atrophy, and hernia are arrested or reversed. […] Hernia size will be measured. After completion of treatment, the mice will be dissected, and LAM, UAM (control), and serum will be collected. A total of 100 mg of tissue (LAM and UAM) will be obtained and frozen for measurement of tissue E2/P4.

WT mice = assay: E2/P4-induced hernia formation in WT mice; format: in vivo, mouse; conditions: WT male mice
Excerpt: as §1, with “All placebo-treated Arom^hum mice developed hernias starting from 5 weeks of age. None of the WT littermates developed hernias. […] The” for “The”
Experiment 1a1: Does the addition of P4 to E2 treatment accelerate LAM fibrosis and hernia formation in WT mice? It was shown that treatment of male WT mice with extremely high doses of systemic estrogens starting around or after the onset of puberty caused inguinal hernia in one third to half of these animals^23-25. We hypothesize that this effect is primarily mediated by the E2 induction of PGR expression in LAM fibroblasts. Male mice have readily detectable P4 levels in the circulation and LAM tissue to activate PGR in LAM fibroblasts (FIG. 6). If this were true, the addition of pharmacologic quantities of P4 (75 mg/pellet for 12-week release)^73 to E2 (0.3 mg/pellet for 12-week release)^23-25 in WT mice should accelerate this phenotype. Our ongoing preliminary study, whereby a 6-week treatment with P4+E2 induced large inguinal hernia in all WT mice (FIG. 7A), supports the following experiment. Long-term (8 weeks or longer) treatment with E2 only is anticipated to cause hernias in up to half of WT mice based on previous findings^23-25. We will determine whether P4+E2 treatment over 12 weeks will give rise to larger hernias in a higher number of mice compared with E2-only treatment. […] See Statistical Methods above for sample size calculation. Hernia surface area will be measured using a digital caliper and calculated as previously described (length×width)^19. At the designated endpoints, LAM and UAM (control) from each mouse will be resected, with one-half of the tissue snap-frozen in liquid nitrogen, and the other half fixed in 4% phosphate-buffered paraformaldehyde for histological and IHC analyses (see below). […]

[2] = test system: PGR expression in LAM fibroblasts of Arom^hum mice; assay: E2/ESR1-induced PGR expression (mRNA, immunoblotting) in LAM fibroblasts; format: cell-based, mouse; conditions: for E2-induced expression of Pgr (mRNA): 100 nM ICI 182,780 or 10 μM MPP, pretreated 2 h, E2 10 nM
Procedure: (A) Time course of E2 (10 nM) effect on PGR protein expression in LAM fibroblasts of Arom^hum mice. […] (E) PGR protein levels in LAM primary fibroblasts from WT and Arom^hum mice after treatment with ICI with or without E2 for 48 h. Cells were pretreated with ICI or MPP for 2 h before adding E2. Data are representative of 3 independent experiments; B-actin serves as a loading control for (A) and (E). Vch: vehicle. […] MPP: A selective ESR1 antagonist.
Breast cancer cell line T47D served as a positive control.

Arom^hum mice [3] = assay: Reversal of existing (large) hernias in Arom^hum mice; format: in vivo, mouse; conditions: Arom^hum mice with large hernias; 3.75 mg/pellet, 12-week subcutaneous release; n=10-11
Excerpt: Arrows in panels B and D point to hernias.
The scrotal area in WT mice is under ˜125 mm^2. We classified hernias as small, medium, or large based on the bulging area through muscle tissue of 125-175 mm^2, 175-225 mm^2, or ≥225 mm^2, respectively. […] Since long-term anti-E2/ESR1 treatments cause significant side effects (e.g., sexual dysfunction or osteoporosis), we mechanistically explored the specific and major downstream effectors of E2/ESR1 signaling leading to muscle fibrosis. […] The key observations that support the role of P4/PGR signaling are summarized below.

Arom^hum mice [4] = conditions: earlier work of the applicant (refs 19, 22); cited from earlier work
Arom^hum mice [5] = conditions: previously shown (ref 19); cited from earlier work

SMILES: C[C@]12CCC(=O)C[C@@H]1CC[C@@H]1[C@@H]2CC[C@]2(C)[C@@H](O)CC[C@@H]12 [DHT]
- hernia formation / hernia size (Arom^hum mice [1]): None prevented hernia formation

SMILES: C[C@]12CC[C@@H]3c4ccc(O)cc4CC[C@H]3[C@@H]1CC[C@@H]2O [E2, Estradiol]
- hernia size induced (WT mice; treatment started at the age of 9 weeks): 125-175 mm2

SMILES: Cc1cc(-c2ncc(CC(=O)Nc3ccc(-c4cnccn4)cn3)cc2C)ccn1 [LGK974]
- hernia formation / hernia size (Arom^hum mice [1]): None prevented hernia formation

SMILES: Cc1c(-c2ccc(O)cc2)nn(-c2ccc(O)cc2)c1-c1ccc(OCCN2CCCCC2)cc1 [MPP]
- E2-induced expression of Pgr (mRNA) [2]: significantly decreased E2-induced expression of Pgr

SMILES: CC(=O)[C@H]1CC[C@H]2[C@@H]3CCC4=CC(=O)CC[C@]4(C)[C@H]3CC[C@]12C [P4, Progesterone]
- hernia formation (WT mice; treatment started at 9-10 weeks of age, up to 12 weeks): did not induce any hernia formation

SMILES: C[C@]12CC[C@@H]3c4ccc(O)cc4C[C@@H](CCCCCCCCC[S+]([O-])CCCC(F)(F)C(F)(F)F)[C@H]3[C@@H]1CC[C@@H]2O (some centres unmarked) [fulvestrant]
- reversal of large hernias, LAM fibrosis and muscle atrophy (Arom^hum mice [3]): reversed large hernias and restored normal anatomy and reversed LAM tissue fibrosis and muscle atrophy; also recorded: successfully reversed them to normal size, rescued LAM fibrosis, reversed muscle atrophy, and restored normal anatomy
- E2-induced expression of Pgr (mRNA) [2]: significantly decreased E2-induced expression of Pgr
- protein levels of 3 PGR isoforms (immunoblotting) ([2]; LAM fibroblasts of WT and Arom^hum mice, ICI with or without E2 for 48 h): blocked
- reversal of existing hernias (Arom^hum mice [4]): reversed existing hernias and restored normal anatomy in Arom^hum mice

SMILES: N#Cc1ccc(C(c2ccc(C#N)cc2)n2cncn2)cc1 [letrozole, Letrozole]
- prevention of LAM fibrosis and hernia formation (Arom^hum mice [5]): entirely prevents this phenotype
- reversal of existing hernias (Arom^hum mice [4]): reversed existing hernias and restored normal anatomy in Arom^hum mice
